Laboratory results from patent publication US20230034660A1, “PEPTIDES THAT ENHANCE NMDA RECEPTOR FUNCTION AND USE THEREOF” (University of Pittsburgh - Of the Commonwealth System of …, priority 2019, published 2023).

Target: T1, mouse ZnT-1 (Mus musculus, UniProt Q60738)
T1 construct: host or cells: HEK293
T1 sequence (Q60738 1-503): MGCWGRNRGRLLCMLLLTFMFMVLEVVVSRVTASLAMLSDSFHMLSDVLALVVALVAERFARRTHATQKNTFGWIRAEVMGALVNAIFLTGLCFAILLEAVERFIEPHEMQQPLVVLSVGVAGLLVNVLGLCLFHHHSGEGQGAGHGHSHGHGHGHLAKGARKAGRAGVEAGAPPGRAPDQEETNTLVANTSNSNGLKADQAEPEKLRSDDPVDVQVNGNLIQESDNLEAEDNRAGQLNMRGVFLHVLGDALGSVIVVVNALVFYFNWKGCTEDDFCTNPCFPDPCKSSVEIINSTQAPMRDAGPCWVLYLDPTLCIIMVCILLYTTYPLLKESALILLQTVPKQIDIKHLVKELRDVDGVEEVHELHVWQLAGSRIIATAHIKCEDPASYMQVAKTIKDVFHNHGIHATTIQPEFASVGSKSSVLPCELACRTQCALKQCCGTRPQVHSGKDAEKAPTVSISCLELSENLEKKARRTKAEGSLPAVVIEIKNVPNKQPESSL
Assay: Zinc efflux assay (FluoZin-3) in ZnT1-transfected HEK293 cells
Format: cell-based
Settings: ZnT1-expressing HEK293 cells, 3 μM overnight, N2AZ versus scN2AZ
Description: HEK293 cells were grown in Dulbecco's modified Eagle's medium (DMEM) containing: 100 units/ml penicillin, 0.1 mg/ml streptomycin, 2 mm glutamine, and 10% (v/v) fetal calf serum in a 5% CO2 humidified atmosphere at 37° C. To express ZnT1, HEK 293 cells were transfected with ZnT1 or empty plasmid (control) using CaPO4 precipitation. Briefly,1 μg mouse ZnT-1 (pCMV6:ZnT1 Gen Bank Q60738) or empty vector plasmid (pCMV6, Origene) was incubated with 2 M calcium chloride in HEPES buffered solution containing […] to generate a co-precipitate, this solution was then dispersed onto cultured cells for 6 hours. Twenty four hours later, cells were treated with the scN2AZ or N2AZ (3 μM ) overnight. […] Rates of initial decrease of the fluorescent signal following exposure to Zn^2+ were determined during a 100 second period. […] Fluorescence imaging measurements were acquired using Axon Imaging Workbench 5.2 (INDEC BioSystems) and analyzed using Excel and Prism GraphPad.
Next, it was examined whether N2AZ could modify ZnT1-dependent zinc transport. Following an intracellular zinc load, decreases in intracellular zinc levels were measured over time as a readout of zinc transport in HEK293 cells previously transfected with a plasmid encoding for ZnT1 or an empty vector. FluoZin-3 fluorescence was utilized to quantify intracellular zinc levels (Qin et al., 2009; Shusterman et al., 2014). […]

NDSYLRSSL [Peptide N2AZ]
rate of zinc efflux: not different
